The text below walks through data of publication PMC5271370, “A High-Content Assay Enables the Automated Screening and Identification of Small Molecules with Specific ALDH1A1-Inhibitory Activity” (PLoS ONE, 2017).

Molecules are shown by their SMILES. Read-outs that look alike come from different tables or passages of the source.

Usually IC50 stands for the concentration at which inhibition is half-maximal.

Assay [1] deals with T1, Human ALDH1A1 (Homo sapiens, UniProt P00352).
T1 construct: made in house
T1 sequence (P00352 1-501): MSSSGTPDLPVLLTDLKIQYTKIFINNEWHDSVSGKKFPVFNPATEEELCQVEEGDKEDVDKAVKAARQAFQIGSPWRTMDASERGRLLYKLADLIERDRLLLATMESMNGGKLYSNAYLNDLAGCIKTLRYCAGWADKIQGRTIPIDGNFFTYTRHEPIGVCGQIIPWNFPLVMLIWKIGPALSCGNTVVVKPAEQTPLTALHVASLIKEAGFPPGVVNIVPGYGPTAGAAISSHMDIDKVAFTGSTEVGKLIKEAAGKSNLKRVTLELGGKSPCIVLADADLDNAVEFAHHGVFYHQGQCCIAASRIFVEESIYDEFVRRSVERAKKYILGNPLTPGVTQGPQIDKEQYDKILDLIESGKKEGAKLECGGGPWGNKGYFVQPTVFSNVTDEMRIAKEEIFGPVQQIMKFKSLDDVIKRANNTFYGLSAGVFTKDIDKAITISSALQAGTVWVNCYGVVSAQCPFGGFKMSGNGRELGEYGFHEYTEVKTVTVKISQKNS
The assay can be described thus: 1,536-well enzymatic assay (NADH fluorescence), ALDH1A1. The assay is classed as biochemical. The conditions noted are these: validation set; 20 nM enzyme, NAD+ and propionaldehyde; read-out: Biochemical IC50 ALDH1A1. The text has this: To validate our optimized assay, we assembled a set of 20 previously reported ALDH inhibitors, with varying degrees of target specificity (Table 1 and S4 Fig). […] Briefly, the assay measures the dehydrogenase activity of recombinant human ALDH1A1, ALDH1A2, ALDH1A3, ALDH2 or ALDH3A1 using NAD(P)^+ and either propionaldehyde or benzaldehyde as substrates. An orthogonal resorufin-based assay format was also run with isolated ALDH1A1 to rule out potential false positives due to intrinsic compound fluorescence.
Human ALDH1A1 and ALDH3A1 were expressed and purified as described elsewhere. Human ALDH2 was purchased from Abcam (ab87415). Human ALDH1A2 and ALDH1A3 were purchased from MyBioSource (MBS1005929; San Diego, CA) and ThermoFisher (11636H07E50), respectively. The inhibitory activity of compounds against ALDHs was measured according to protocols described previously. Briefly, 3 μL of enzyme (final concentrations of 20 nM for ALDH1A1, 50 nM for ALDH1A2, 50 nM for ALDH1A3, 75 nM for ALDH2 and 5 nM for ALDH3A1) in assay buffer (100 mM HEPES pH 7.5 with 0.01% Tween 20) were dispensed into a 1,536-well solid-bottom black plate (Greiner Bio One, Monroe, NC). […] Samples were incubated (room temperature, protected from light) for 15 minutes followed by a 1 μL substrate addition of NAD^+ and Propionaldehyde (final concentrations of 1 mM and 80 μM, respectively) for ALDH1A1, 1A2, 1A3, and ALDH2 or NADP^+ and benzaldehyde (final concentrations of 1 mM and 200 μM, respectively) for ALDH3A1. Plates were centrifuged at 1,000 rpm for 15 seconds, then read in kinetic mode on a ViewLux High-throughput CCD imager (PerkinElmer, Waltham, MA) equipped with standard UV fluorescence optics (340 nm excitation, 450 nm emission) for 5 (ALDH1A1, ALDH1A2, ALDH2, ALDH3A1) or 30 (ALDH1A3) minutes. The change in fluorescence intensity over the 5- or 30-minute reaction period was normalized against no-inhibitor and no-enzyme controls and the resulting percent inhibition data were fitted to a 4-parameter Hill equation. Bay-11 7085 was used as intraplate control. To account for artifacts due to intrinsic compound fluorescence in the above spectrum, compounds were also tested in an orthogonal resorufin assay format with optics of excitation 525 nm/emission 598 nm as described before. The same parameters as the NADH assay were used for the resorufin assay, with the addition of (final) 133 μg/mL diaphorase and 37 μM resazurin to the assay solution. Same controls were used in both formats.

Assay [2] relates to MIA PaCa-2 cells. Nature of the assay: 1,536-well high-content imaging ALDEFLUOR assay, MIA PaCa-2. The settings on record: semi-automated; active = high quality concentration response curve and >50% efficacy; up to 45.8 μM. The assay is classed as cell-based, human. The protocol: (§1) To miniaturize the assay into a 1536-well format amenable to qHTS, we chose MIA PaCa-2 and HT-29 because of their high levels of ALDH1A1(Fig 1A). Utilizing the 8-step protocol described by Ming et al. as a starting point, we developed a “semi-automated” protocol described in S1 Table. Briefly, we plated 1,000 cells in a volume of 5 μL/well into black-optical quality clear bottom 1,536-well plates, and allowed cells to attach overnight. Culture media was subsequently removed by inverting and centrifuging plates using a plate adaptor as previously described and replaced with 5 μL of a solution of either 500 or 100 nM BAAA substrate in ALDEFLUOR buffer. To identify cells based on nuclear staining, we also included 0.5 nM Hoechst 33342 in the above buffer. […] After incubating the plate for 30 minutes at 37°C, 5% CO2, 85% RH, the remaining substrate was removed by centrifugation as above and replaced with 3 μL of ALDEFLUOR buffer. Fluorescence was subsequently imaged using the IN Cell Analyzer 2200 high-content widefield fluorescence based imager and the resulting images were quantified using the IN Cell Investigator v1.6.2 analysis software (see Experimental Procedures for analysis details).
(§2) The ALDEFLUOR kit was purchased from […] Technologies (Vancouver, Canada; #01700). Cells (5 μL) were dispensed into black, optical quality (cyclic olefin copolymer) clear bottom, medium binding TC treated 1,536-well plates (Aurora Microplates, Whitefish MT) using a Multidrop Combi dispenser (ThermoFisher) and incubated overnight (37°C, 5% CO2, 85% RH). Media was subsequently removed by centrifuging plates upside down using a plate adaptor to collect media. A solution of BAAA substrate ([…] Technologies) and Hoechst 33342 (ThermoFisher, final concentrations of 500 nM and 0.5 nM, respectively) in ALDEFLUOR buffer ([…] Technologies #01700) was dispensed onto cells using a Multidrop Combi followed by immediate transfer (23 nL) of compound or control solutions using a Wako Pin-tool (final percentage of DMSO in the cell plates was 0.5%). Unless otherwise noted, all compounds were assayed as 16-point dilutions spanning a final concentration range of 1.4 nM to […]. […] Cells were incubated for 30 minutes or the indicated amount of time at 37°C, 5% CO2, 85% RH to allow the conversion of BAAA into BAA. Supernatant was subsequently removed by centrifugation as described above, then ALDEFLUOR buffer (3 μl) was dispensed by Multidrop Combi before imaging on an IN Cell 2200 (GE Healthcare).
(§3) The above assay was modified for an online robotic screening system. After cell plating and overnight incubation, 4 μL of media were removed using a 64-tip metal aspirator head on a Wako aspirator station, leaving 1 μL remaining in the well, followed by a 4 μL dispense of BAAA and Hoechst 33342 in ALDEFLUOR buffer, for a final concentration of 500 nM and 0.5 nM, respectively. Immediately following the dispense, 23 nL of compound or control solutions were transferred using a Wako Pin-tool. Cells were incubated for 30 minutes at 37°C, 5% CO2, 85% RH, followed by a 4 μL media removal using the Wako aspirator, and a subsequent 3 μL addition of ALDEFLUOR buffer. Plates were then immediately read on the IN Cell 2200 as described below.
(§4) For images captured on the IN Cell 2200 widefield automated microscope, a 10x 0.45 NA Plan Apo objective lens was used to capture the entire well of the 1,536-well plate using standard DAPI (390/18x, 432/48m) and FITC (475/28x, 525/48m) filter sets at 50 msec and 100 msec exposures, respectively. Images were subsequently analyzed using IN Cell Investigator v1.6.2 analysis software’s canned Multi-Target Analysis algorithm (GE Healthcare). Hoechst stained nuclei were identified using top hat segmentation with a minimum area of 75 μm^2 and sensitivity of 93. […]

Assay [3] has as its system HT-29 cells. Nature of the assay: 1,536-well high-content imaging ALDEFLUOR assay, HT-29. The class given is cell-based, human. How it is done:
as §1, §2, §3, §4

In assay [4] the test system is LN-229 cells. Nature of the assay: 1,536-well high-content imaging ALDEFLUOR assay, LN-229. The class given is cell-based, human. The settings on record: fully automated assay, Fig 5. How it is done: We next sought to test if the fully automated high-content assay could be used to detect ALDH1A1-specific inhibitors.
as §2
The above assay was modified for an online robotic screening system. After cell plating and overnight incubation, 4 μL of media were removed using a 64-tip metal aspirator head on a Wako aspirator station, leaving 1 μL remaining in the well, followed by a 4 μL dispense of BAAA and Hoechst 33342 in ALDEFLUOR buffer, for a final concentration of 500 nM and 0.5 nM, respectively. Immediately following the dispense, 23 nL of compound or control solutions were transferred using a Wako Pin-tool. […] Plates were then immediately read on the IN Cell 2200 as described below.
For images captured on the IN Cell 2200 widefield automated microscope, a 10x 0.45 NA Plan Apo objective lens was used to capture the entire well of the 1,536-well plate using standard DAPI (390/18x, 432/48m) and FITC (475/28x, 525/48m) filter sets at 50 msec and 100 msec exposures, respectively. Images were subsequently analyzed using IN Cell Investigator v1.6.2 analysis software’s canned Multi-Target Analysis algorithm (GE Healthcare). […]
The same controls were also used for the calculation of the Z’ factor for each assay. The Z’ factor, a measure of assay quality control, was determined as previously described. […] All concentration–response curves were fitted as before and IC50 were calculated with the GraphPad Prism software.

For assay [5], the system named is ALDH1A1. The conditions noted are these: reported ALDH target 1A1; read-out: Reported Biochemical IC50, ALDH1A1; cited from earlier work.

In the case of `CCSC(=O)N1CCCCCC1` [Molinate], the IC50 in assay [1] came to 27 µM. The “Activity in ALDEFLUOR assay, MIA PaCa-2” value in assay [2] is on record as “tested negative”. In addition, in assay [3] (semi-automated, active = high quality concentration response curve and >50% efficacy, up to 45.8 μM), the “Activity in ALDEFLUOR assay, HT-29” value is “tested negative”.

Take `CC(C)CCn1c(CN2CCN(C(=O)C3CC3)CC2)nc2c1c(=O)n(C)c(=O)n2C` [NCT-501]: the IC50 in assay [3] (fully automated assay, n = 4, read-out: ALDEFLUOR IC50 HT-29 (Fig 5)) was 3.3 µM; in assay [3] (validation set, semi-automated protocol, 16-point dilution, 1,000 cells/well, 500 nM BAAA, 30 min, read-out: Aldefluor IC50 HT-29), 4.33 µM; in assay [5], […]. Further, the “Inhibition of BAAA turnover in LN-229 (ALDH1A1-negative cells)” value in assay [4] is “inhibited BAAA turnover only in ALDH1A1-expressing cells”.
